Test results reported in PubChem BioAssay AID2060902 (Molecular Pharmacology Branch, DTP, NCI, 2025).

System: 485368-065-R3-J5-PDC spheroids with HUVEC/MSC, viability
Assay: Anticancer human tumor 485368-065-R3-J5-PDC patient-derived pancreatic carcinoma cell line growth inhibition [RAS]
Settings: for IC50: curve of first compound; for viability, T/C: stronger effect = lower value
Method in brief: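 Agents were tested in combination matrices in half-log decrements from a top concentration at or near clinical Cmax (10 microM if undetermined). Targets were multi-cell spheroids of tumour lines plus HUVEC and MSC stromal cells.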
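Note: spheroids exposed to agents for seven days before readout.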

`Cc1nc(N2CCC3(CC2)COC(C)C3N)c(CO)nc1Sc1ccnc(N)c1Cl` (configuration not stated) + CCn1c(-c2cc(N3CCN(C)CC3)cnc2C(C)OC)c2c3cc(ccc31)-c1csc(n1)CC(NC(=O)C1CC1C)C(=O)N1CCCC(N1)C(=O)OCC(C)(C)C2 was tested, and the IC50 (second compound 0.000949 µM) was under 31.6 nM, the IC50 (second compound 0.003 µM) was under 31.6 nM and the IC50 (second compound 0.00949 µM) was under 31.6 nM. For the same compound, the IC50 (second compound 0.03 µM) was under 31.6 nM, the IC50 (second compound 0.0949 µM) was under 31.6 nM and the IC50 (second compound 0.3 µM) was under 31.6 nM. For the same compound, the viability, T/C (second compound 0.000949 µM, first compound 0.0316 µM) was 26.1%, the viability, T/C (second compound 0.000949 µM, first compound 0.1 µM) was 18.6% and the viability, T/C (second compound 0.000949 µM, first compound 0.316 µM) was 17.5%. For the same compound, the viability, T/C (second compound 0.000949 µM, first compound 1 µM) was 15%, the viability, T/C (second compound 0.000949 µM, first compound 3.16 µM) was 11.8% and the viability, T/C (second compound 0.000949 µM, first compound 10 µM) was 8.82%. The viability, T/C (second compound 0.003 µM, first compound 0.0316 µM) was 18.4%, the viability, T/C (second compound 0.003 µM, first compound 0.1 µM) was 15.9% and the viability, T/C (second compound 0.003 µM, first compound 0.316 µM) was 12.8%. For the same compound, the viability, T/C (second compound 0.003 µM, first compound 1 µM) was 10.7%, the viability, T/C (second compound 0.003 µM, first compound 3.16 µM) was 7.85% and the viability, T/C (second compound 0.003 µM, first compound 10 µM) was 4.73%. The viability, T/C (second compound 0.00949 µM, first compound 0.0316 µM) was 13.4%, the viability, T/C (second compound 0.00949 µM, first compound 0.1 µM) was 12% and the viability, T/C (second compound 0.00949 µM, first compound 0.316 µM) was 9.63%. For the same compound, the viability, T/C (second compound 0.00949 µM, first compound 1 µM) was 9.5%, the viability, T/C (second compound 0.00949 µM, first compound 3.16 µM) was 4.66% and the viability, T/C (second compound 0.00949 µM, first compound 10 µM) was 2.44%. For the same compound, the viability, T/C (second compound 0.03 µM, first compound 0.0316 µM) was 10.6%, the viability, T/C (second compound 0.03 µM, first compound 0.1 µM) was 10.2% and the viability, T/C (second compound 0.03 µM, first compound 0.316 µM) was 8.7%. It also gave a viability, T/C (second compound 0.03 µM, first compound 1 µM) of 5.25%, a viability, T/C (second compound 0.03 µM, first compound 3.16 µM) of 2.49% and a viability, T/C (second compound 0.03 µM, first compound 10 µM) of 1.01%. For the same compound, the viability, T/C (second compound 0.0949 µM, first compound 0.0316 µM) was 8.37%, the viability, T/C (second compound 0.0949 µM, first compound 0.1 µM) was 8.31% and the viability, T/C (second compound 0.0949 µM, first compound 0.316 µM) was 6.58%. The viability, T/C (second compound 0.0949 µM, first compound 1 µM) was 3.11%, the viability, T/C (second compound 0.0949 µM, first compound 3.16 µM) was 1.36% and the viability, T/C (second compound 0.0949 µM, first compound 10 µM) was 0.74%. For the same compound, the viability, T/C (second compound 0.3 µM, first compound 0.0316 µM) was 7.17%, the viability, T/C (second compound 0.3 µM, first compound 0.1 µM) was 6.81% and the viability, T/C (second compound 0.3 µM, first compound 0.316 µM) was 5.18%. For the same compound, the viability, T/C (second compound 0.3 µM, first compound 1 µM) was 2.89%, the viability, T/C (second compound 0.3 µM, first compound 3.16 µM) was 1.79% and the viability, T/C (second compound 0.3 µM, first compound 10 µM) was 0.68%.
